Laboratory results from US7696184B2, “Amino-propanol derivatives as sphingosine-1-phosphate receptor modulator” (Novartis AG, priority 2003, dated 2010).

Experiments:
[1] = test system: peripheral blood lymphocytes; experiment: In vivo: Blood Lymphocyte Depletion; conditions: rats, p.o.
Experimental: B. In vivo: Blood Lymphocyte Depletion
A compound of formula I or the vehicle is administered orally by gavage to rats. Tail blood for hematological monitoring is obtained on day -1 to give the baseline individual values, and at 2, 6, 24, 48 and 72 hours after application. In this assay, the compounds of formula I deplete peripheral blood lymphocytes when administered at a dose of 0.03 to 3 mg/kg. For example, following results are obtained: depletion of peripheral blood lymphocytes by more than 50%

[2] = molecular target: T1, human S1P receptor EDG-8 (S1P5) (Homo sapiens, UniProt Q9H228); experiment: S1P receptor profiling, GTP[γ-35S] binding SPA, S1P5; assay type: biochemical; conditions: for EC50: GTP[γ-35S] binding, membranes of transfected CHO or RH7777 cells; for S1P5 mode of action: column beside S1P5 EC50
T1 construct: expressed in transfected cells
T1 sequence (Q9H228 whole entry): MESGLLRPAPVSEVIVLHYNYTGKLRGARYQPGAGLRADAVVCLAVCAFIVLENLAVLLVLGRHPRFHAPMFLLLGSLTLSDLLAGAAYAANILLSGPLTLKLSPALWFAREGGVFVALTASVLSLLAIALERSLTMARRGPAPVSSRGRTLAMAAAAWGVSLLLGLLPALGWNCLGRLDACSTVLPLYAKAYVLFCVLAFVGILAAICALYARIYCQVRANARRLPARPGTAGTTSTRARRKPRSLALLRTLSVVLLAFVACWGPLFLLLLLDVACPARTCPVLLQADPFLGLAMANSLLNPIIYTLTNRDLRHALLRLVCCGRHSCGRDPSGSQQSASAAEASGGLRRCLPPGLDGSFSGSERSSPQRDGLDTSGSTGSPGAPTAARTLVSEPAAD
Experimental: (§1) Sphingosine-1-phosphate (S1P) Receptor Profiling
(§2) Agonist activities of compounds are tested on the human SIP receptors EDG-1 (S1P1), EDG-3 (S1P3), EDG-5 (S1P2), EDG-6 (S1P4) and EDG-8 (S1P5). […] The assay technology used is SPA (scintillation proximity based assay). Briefly, DMSO dissolved compounds are serially diluted and added to SPA-bead (Amersham-Pharmacia) immobilised S1P receptor expressing membrane protein (10-20 μg/well) in the presence of 50 mM Hepes, 100 mM NaCl, 10 mM MgCl2, 10 μM GDP, 0.1% fat free BSA and 0.2 nM GTP [γ-^35S] (1200 Ci/mmol). After incubation in 96 well microtiterplates at RT for 120 min, unbound GTP [γ-^35S] is separated by a centrifugation step. Luminescence of SPA beads triggered by membrane bound GTP [γ-^35S] is quantified with a TOPcount plate reader (Packard). EC50s are calculated using standard curve fitting software.

[3] = molecular target: T2, human S1P receptor EDG-5 (S1P2) (Homo sapiens, UniProt O95136); experiment: S1P receptor profiling, GTP[γ-35S] binding SPA, S1P2; assay type: biochemical; conditions: membranes of transfected CHO or RH7777 cells
T2 construct: expressed in transfected cells
T2 sequence (O95136 whole entry): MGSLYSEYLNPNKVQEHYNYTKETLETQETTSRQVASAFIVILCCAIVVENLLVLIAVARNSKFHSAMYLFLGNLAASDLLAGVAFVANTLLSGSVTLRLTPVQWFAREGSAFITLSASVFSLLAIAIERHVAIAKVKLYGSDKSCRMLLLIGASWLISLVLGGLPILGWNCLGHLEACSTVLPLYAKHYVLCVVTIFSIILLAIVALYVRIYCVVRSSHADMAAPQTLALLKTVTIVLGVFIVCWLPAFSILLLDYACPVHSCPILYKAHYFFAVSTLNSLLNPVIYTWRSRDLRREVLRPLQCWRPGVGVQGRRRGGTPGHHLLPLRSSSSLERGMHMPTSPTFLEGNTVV
Experimental: as §1, §2

[4] = molecular target: T3, human S1P receptor EDG-3 (S1P3) (Homo sapiens, UniProt Q99500); experiment: S1P receptor profiling, GTP[γ-35S] binding SPA, S1P3; assay type: biochemical; conditions: membranes of transfected CHO or RH7777 cells
T3 construct: expressed in transfected cells
T3 sequence (Q99500 whole entry): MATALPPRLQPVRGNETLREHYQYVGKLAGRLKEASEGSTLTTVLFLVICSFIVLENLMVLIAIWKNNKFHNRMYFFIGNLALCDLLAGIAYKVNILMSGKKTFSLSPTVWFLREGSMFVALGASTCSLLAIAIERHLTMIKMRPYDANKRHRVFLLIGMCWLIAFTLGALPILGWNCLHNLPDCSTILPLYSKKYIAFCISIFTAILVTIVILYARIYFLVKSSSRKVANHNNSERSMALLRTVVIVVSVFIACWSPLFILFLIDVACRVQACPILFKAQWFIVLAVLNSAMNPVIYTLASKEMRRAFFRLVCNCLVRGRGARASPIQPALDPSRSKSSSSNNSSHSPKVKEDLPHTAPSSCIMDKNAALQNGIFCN
Experimental: as §1, §2

[5] = molecular target: T4, human S1P receptor EDG-6 (S1P4) (Homo sapiens, UniProt O95977); experiment: S1P receptor profiling, GTP[γ-35S] binding SPA, S1P4; assay type: biochemical; conditions: for EC50: GTP[γ-35S] binding, membranes of transfected CHO or RH7777 cells; for S1P4 mode of action: column beside S1P4 EC50
T4 construct: expressed in transfected cells
T4 sequence (O95977 1-384): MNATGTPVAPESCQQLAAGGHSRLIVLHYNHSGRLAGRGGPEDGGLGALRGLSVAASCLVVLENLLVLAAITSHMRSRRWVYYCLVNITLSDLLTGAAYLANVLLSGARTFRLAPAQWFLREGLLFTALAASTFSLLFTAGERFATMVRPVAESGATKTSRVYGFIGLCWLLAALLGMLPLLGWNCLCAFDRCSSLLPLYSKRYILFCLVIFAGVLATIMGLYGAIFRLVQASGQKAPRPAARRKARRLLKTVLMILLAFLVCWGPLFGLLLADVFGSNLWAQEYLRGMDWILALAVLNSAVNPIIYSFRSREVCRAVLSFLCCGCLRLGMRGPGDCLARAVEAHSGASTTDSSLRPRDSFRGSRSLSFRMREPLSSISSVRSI
Experimental: as §1, §2

[6] = molecular target: T5, human S1P receptor EDG-1 (S1P1) (Homo sapiens, UniProt P21453); experiment: S1P receptor profiling, GTP[γ-35S] binding SPA, S1P1; assay type: biochemical; conditions: for EC50: GTP[γ-35S] binding, membranes of transfected CHO or RH7777 cells
T5 construct: expressed in transfected cells
T5 sequence (P21453 whole entry): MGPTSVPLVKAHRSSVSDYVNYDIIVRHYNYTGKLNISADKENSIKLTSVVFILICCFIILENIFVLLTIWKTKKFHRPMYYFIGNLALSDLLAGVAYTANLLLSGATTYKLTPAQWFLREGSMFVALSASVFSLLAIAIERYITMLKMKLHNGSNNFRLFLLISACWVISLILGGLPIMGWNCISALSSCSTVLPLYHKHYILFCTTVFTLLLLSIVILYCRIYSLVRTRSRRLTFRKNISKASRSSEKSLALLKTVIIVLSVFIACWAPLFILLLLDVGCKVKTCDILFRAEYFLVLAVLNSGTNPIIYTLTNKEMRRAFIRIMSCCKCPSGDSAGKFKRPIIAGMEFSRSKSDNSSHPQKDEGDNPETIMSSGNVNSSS
Experimental: as §1, §2

Row | Compound | dose giving depletion of peripheral blood lymphocytes by more than 50% ([1]; after 6 h) | dose giving depletion of peripheral blood lymphocytes by more than 50% ([1]; after 48 h) | EC50 [2] | S1P5 mode of action [2] | EC50 [3] | EC50 [4] | EC50 [5] | S1P4 mode of action [5] | S1P1 mode of action [6] | EC50 [6]
1 | CCCCCOc1c(Cl)cc(CC[C@@](C)(N)CO)cc1Cl [Example 1, (R)-2-Amino-4-(3,5-dichloro-4-pentyloxy-phenyl)-2-methyl-butan-1-ol Hydrotriflate] | 0.5 mg/kg | > 1 mg/kg |  |  |  |  |  |  |  | 
2 | CCCCCOc1c(Cl)cc(CC[C@@](C)(N)COP(=O)(O)O)cc1Cl [Example 4, Phosphoric acid mono-[(R)-2-amino-4-(3,5-dichloro-4-pentyloxy-phenyl)-2-methyl-butyl]ester] |  |  | 0.2 nM | Agon. | > 10000 nM | > 10000 nM | 0.2 nM | Agon. | Agon. | 0.2 nM
3 | COc1cc(CC[C@@](C)(N)CO)cc(Cl)c1OCCCC(F)(F)C(F)(F)F.Cl [Example 5, (R)-2-Amino-4-[3-chloro-5-methoxy-4-(4,4,5,5,5-pentafluoro-pentyloxy)-phenyl]-2-methyl-butan-1-ol Hydrochloride] | 0.2 mg/kg | > 1 mg/kg |  |  |  |  |  |  |  | 
4 | COc1cc(CC[C@@](C)(N)COP(=O)(O)O)cc(Cl)c1OCCCC(F)(F)C(F)(F)F [Example 6, Phosphoric acid mono-{(R)-2-amino-4-[3-chloro-5-methoxy-4-(4,4,5,5,5-pentafluoro-pentyloxy)-phenyl]-2-methyl-butyl}ester] |  |  | 0.2 nM | Agon. | > 10000 nM | > 10000 nM | 0.8 nM | Agon. | Agon. | 1.3 nM
5 | CCOc1ccc(CCOc2c(Cl)cc(CC[C@@](C)(N)CO)cc2OC)cc1 [Example 9, (R-2-Amino-4-{3-chloro-4-[2-(4-ethoxy-phenyl)-ethoxy]-5-methoxy-phenyl}-2-methyl-butan-1-ol Hydrotriflate] | 0.2 mg/kg |  |  |  |  |  |  |  |  | 
6 | CCOc1ccc(CCOc2c(Cl)cc(CC[C@@](C)(N)COP(=O)(O)O)cc2OC)cc1 [Example 10, Phosphoric acid mono-((R)-2-amino-4-{3-chloro-4-[2-(4-ethoxy-phenyl)-ethoxy]-5-methoxy-phenyl}-2-methyl-butyl)ester] |  |  | 2.5 nM |  | > 10000 nM | 111 nM | > 10000 nM |  |  | 0.3 nM
